Laboratory results reported in ChEMBL document CHEMBL4041509, “Structure-activity relationship study of novel 2-aminobenzofuran derivatives as P-glycoprotein inhibitors” (Eur J Med Chem, 2017).
Activity calls are given as the source filed them. The rule behind the calls is not given here.

How the values were obtained:
[1] = molecular target: T1, ATP-dependent translocase ABCB1 (Homo sapiens, UniProt P08183); assay: Inhibition of ABCB1 (unknown origin) expressed in Flp-In-293 cells assessed as increase in calcein-AM uptake at 5 uM preincubated for 30 mins followed by calcein-AM addition measured after 30 mins by fluorescence spectrometric method relative to control; assay type: cell-based; settings: 0.5 h
HEK293 [2] = assay: Effect on ABCB1 mRNA expression in human Flp-In-293 cells at 5 uM after 72 hrs by qRT-PCR method; assay type: functional, cell-based
HEK293 [3] = assay: Potentiation of paclitaxel-induced cytotoxicity against human Flp-In-293 cells at 1 uM by SRB assay relative to control; assay type: functional
HeLa S3 = assay: Cytotoxicity against human HeLaS3 assessed as reduction in cell viability by SRB assay; assay type: cell-based
[4] = molecular target: T1, ATP-dependent translocase ABCB1; assay: Inhibition of ABCB1 (unknown origin) expressed in human Flp-In-293 cells assessed as potentiation of paclitaxel-induced cytotoxicity by SRB assay; assay type: cell-based
[5] = molecular target: T1, ATP-dependent translocase ABCB1; assay: Inhibition of ABCB1 (unknown origin) expressed in human Flp-In-293 cells assessed as potentiation of vincristine-induced cytotoxicity by SRB assay; assay type: cell-based
[6] = molecular target: T1, ATP-dependent translocase ABCB1; assay: Inhibition of ABCB1 (unknown origin) expressed in human Flp-In-293 cells assessed as potentiation of vincristine-induced cytotoxicity at 2.5 uM by SRB assay relative to control; assay type: cell-based
Homo sapiens [7] = species on record: Homo sapiens; assay: Inhibition of P-gp in human HeLaS3 cells assessed as potentiation of doxorubicin-induced cytotoxicity at 2.5 uM by SRB assay relative to control; assay type: cell-based
Homo sapiens [8] = species on record: Homo sapiens; assay: Inhibition of P-gp in human HeLaS3 cells assessed as potentiation of doxorubicin-induced cytotoxicity at 1 uM by SRB assay relative to control; assay type: cell-based
Homo sapiens [9] = species on record: Homo sapiens; assay: Inhibition of P-gp in human KBVIN cells assessed as potentiation of vincristine-induced cytotoxicity at 1 uM by SRB assay relative to control; assay type: cell-based
HEK293 [10] = assay: Potentiation of doxorubicin-induced cytotoxicity against human Flp-In-293 cells at 1 uM by SRB assay relative to control; assay type: functional
[11] = molecular target: T1, ATP-dependent translocase ABCB1; assay: Inhibition of ABCB1 (unknown origin) expressed in Flp-In-293 cells assessed as increase in calcein-AM uptake at 10 uM preincubated for 30 mins followed by calcein-AM addition measured after 30 mins by fluorescence spectrometric method relative to control; assay type: cell-based; settings: 0.5 h
Homo sapiens [12] = species on record: Homo sapiens; assay: Inhibition of P-gp in human KBVIN cells assessed as potentiation of vincristine-induced cytotoxicity by SRB assay; assay type: cell-based
Homo sapiens [13] = species on record: Homo sapiens; assay: Inhibition of P-gp in human HeLaS3 cells assessed as potentiation of vincristine-induced cytotoxicity at 2.5 uM by SRB assay relative to control; assay type: cell-based
Homo sapiens [14] = species on record: Homo sapiens; assay: Inhibition of P-gp in human HeLaS3 cells assessed as potentiation of doxorubicin-induced cytotoxicity by SRB assay; assay type: cell-based
HEK293 [15] = assay: Potentiation of paclitaxel-induced cytotoxicity against human Flp-In-293 cells at 2.5 uM by SRB assay relative to control; assay type: functional
Homo sapiens [16] = species on record: Homo sapiens; assay: Inhibition of P-gp in human HeLaS3 cells assessed as potentiation of paclitaxel-induced cytotoxicity at 1 uM by SRB assay relative to control; assay type: cell-based
HEK293 [17] = assay: Effect on ABCB1 mRNA expression in human Flp-In-293 cells expressing ABCB1 at 5 uM after 72 hrs by qRT-PCR method; assay type: functional, cell-based
Homo sapiens [18] = species on record: Homo sapiens; assay: Inhibition of P-gp in human HeLaS3 cells assessed as potentiation of paclitaxel-induced cytotoxicity by SRB assay; assay type: cell-based
Homo sapiens [19] = species on record: Homo sapiens; assay: Inhibition of P-gp in human KBVIN cells assessed as potentiation of paclitaxel-induced cytotoxicity by SRB assay; assay type: cell-based
[20] = molecular target: T1, ATP-dependent translocase ABCB1; assay: Inhibition of ABCB1 (unknown origin) expressed in human Flp-In-293 cells assessed as potentiation of paclitaxel-induced cytotoxicity at 1 uM by SRB assay relative to control; assay type: cell-based
HEK293 [21] = assay: Potentiation of doxorubicin-induced cytotoxicity against human Flp-In-293 cells at 2.5 uM by SRB assay relative to control; assay type: functional
[22] = molecular target: T1, ATP-dependent translocase ABCB1; assay: Inhibition of ABCB1 (unknown origin) expressed in human Flp-In-293 cells assessed as potentiation of doxorubicin-induced cytotoxicity at 2.5 uM by SRB assay relative to control; assay type: cell-based
[23] = molecular target: T1, ATP-dependent translocase ABCB1; assay: Inhibition of ABCB1 (unknown origin) expressed in human Flp-In-293 cells assessed as potentiation of doxorubicin-induced cytotoxicity by SRB assay; assay type: cell-based
HEK293 [24] = assay: Cytotoxicity against human Flp-In-293 cells expressing MDR1 assessed as reduction in cell viability by SRB assay; assay type: ADME, cell-based
Homo sapiens [25] = species on record: Homo sapiens; assay: Inhibition of P-gp in human KBVIN cells assessed as potentiation of doxorubicin-induced cytotoxicity at 2.5 uM by SRB assay relative to control; assay type: cell-based
[26] = Cytotoxicity against human KBVIN assessed as reduction in cell viability by SRB assay; assay type: cell-based
Homo sapiens [27] = species on record: Homo sapiens; assay: Inhibition of P-gp in human HeLaS3 cells assessed as potentiation of vincristine-induced cytotoxicity by SRB assay; assay type: cell-based
[28] = molecular target: T1, ATP-dependent translocase ABCB1; assay: Inhibition of ABCB1 (unknown origin) expressed in human Flp-In-293 cells assessed as potentiation of vincristine-induced cytotoxicity at 1 uM by SRB assay relative to control; assay type: cell-based
Homo sapiens [29] = species on record: Homo sapiens; assay: Inhibition of P-gp in human HeLaS3 cells assessed as potentiation of paclitaxel-induced cytotoxicity at 2.5 uM by SRB assay relative to control; assay type: cell-based
HEK293 [30] = assay: Potentiation of vincristine-induced cytotoxicity against human Flp-In-293 cells at 1 uM by SRB assay relative to control; assay type: functional
HEK293 [31] = assay: Cytotoxicity against human Flp-In-293 cells assessed as reduction in cell viability by SRB assay; assay type: cell-based
Homo sapiens [32] = species on record: Homo sapiens; assay: Inhibition of P-gp in human KBVIN cells assessed as potentiation of doxorubicin-induced cytotoxicity by SRB assay; assay type: cell-based
Homo sapiens [33] = species on record: Homo sapiens; assay: Inhibition of P-gp in human HeLaS3 cells assessed as potentiation of vincristine-induced cytotoxicity at 1 uM by SRB assay relative to control; assay type: cell-based
[34] = molecular target: T1, ATP-dependent translocase ABCB1; assay: Inhibition of ABCB1 (unknown origin) expressed in human Flp-In-293 cells assessed as potentiation of doxorubicin-induced cytotoxicity at 1 uM by SRB assay relative to control; assay type: cell-based
Homo sapiens [35] = species on record: Homo sapiens; assay: Inhibition of P-gp in human KBVIN cells assessed as potentiation of doxorubicin-induced cytotoxicity at 1 uM by SRB assay relative to control; assay type: cell-based
Homo sapiens [36] = species on record: Homo sapiens; assay: Inhibition of P-gp in human KBVIN cells assessed as potentiation of paclitaxel-induced cytotoxicity at 1 uM by SRB assay relative to control; assay type: cell-based
Homo sapiens [37] = species on record: Homo sapiens; assay: Inhibition of P-gp in human KBVIN cells assessed as potentiation of paclitaxel-induced cytotoxicity at 2.5 uM by SRB assay relative to control; assay type: cell-based
Homo sapiens [38] = species on record: Homo sapiens; assay: Inhibition of P-gp in human KBVIN cells assessed as potentiation of vincristine-induced cytotoxicity at 2.5 uM by SRB assay relative to control; assay type: cell-based
HEK293 [39] = assay: Potentiation of vincristine-induced cytotoxicity against human Flp-In-293 cells at 2.5 uM by SRB assay relative to control; assay type: functional
[40] = molecular target: T1, ATP-dependent translocase ABCB1; assay: Inhibition of ABCB1 (unknown origin) expressed in human Flp-In-293 cells assessed as potentiation of paclitaxel-induced cytotoxicity at 2.5 uM by SRB assay relative to control; assay type: cell-based

T1 sequence (P08183 whole entry): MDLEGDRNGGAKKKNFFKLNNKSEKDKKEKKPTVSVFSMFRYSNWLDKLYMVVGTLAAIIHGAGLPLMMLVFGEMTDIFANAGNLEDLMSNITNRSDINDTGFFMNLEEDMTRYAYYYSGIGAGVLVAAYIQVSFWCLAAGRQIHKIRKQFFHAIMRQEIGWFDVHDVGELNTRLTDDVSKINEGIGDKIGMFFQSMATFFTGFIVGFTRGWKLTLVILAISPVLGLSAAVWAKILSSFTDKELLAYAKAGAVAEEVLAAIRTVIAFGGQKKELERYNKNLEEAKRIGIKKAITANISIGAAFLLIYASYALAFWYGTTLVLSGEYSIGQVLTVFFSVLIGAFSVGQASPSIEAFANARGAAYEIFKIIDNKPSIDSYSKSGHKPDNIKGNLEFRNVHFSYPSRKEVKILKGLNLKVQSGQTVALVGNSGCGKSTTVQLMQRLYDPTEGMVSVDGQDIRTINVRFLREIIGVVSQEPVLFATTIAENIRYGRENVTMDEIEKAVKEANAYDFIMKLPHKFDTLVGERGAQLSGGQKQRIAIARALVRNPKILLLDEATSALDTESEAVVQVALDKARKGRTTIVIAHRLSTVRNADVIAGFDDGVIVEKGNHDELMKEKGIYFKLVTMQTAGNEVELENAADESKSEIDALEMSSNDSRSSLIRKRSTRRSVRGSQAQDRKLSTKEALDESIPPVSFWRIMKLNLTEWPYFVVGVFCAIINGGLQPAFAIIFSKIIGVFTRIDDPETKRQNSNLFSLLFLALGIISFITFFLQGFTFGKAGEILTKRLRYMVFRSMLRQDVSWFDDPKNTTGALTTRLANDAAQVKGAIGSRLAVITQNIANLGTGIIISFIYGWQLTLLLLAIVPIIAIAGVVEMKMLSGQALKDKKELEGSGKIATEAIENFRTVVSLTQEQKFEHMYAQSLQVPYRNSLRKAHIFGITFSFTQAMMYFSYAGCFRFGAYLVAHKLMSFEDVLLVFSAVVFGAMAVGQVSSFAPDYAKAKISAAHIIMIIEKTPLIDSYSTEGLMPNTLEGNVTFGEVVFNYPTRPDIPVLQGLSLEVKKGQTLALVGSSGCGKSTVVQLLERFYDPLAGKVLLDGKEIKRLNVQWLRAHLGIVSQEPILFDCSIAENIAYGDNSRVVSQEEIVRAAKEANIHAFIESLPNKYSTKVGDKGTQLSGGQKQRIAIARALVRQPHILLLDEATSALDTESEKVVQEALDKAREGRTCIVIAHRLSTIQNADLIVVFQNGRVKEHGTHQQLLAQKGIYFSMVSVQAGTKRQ

COc1ccc(-c2cc(OCCN3CCCC3)c3c(-c4cccs4)c(N)oc3c2)cc1
fold change (FC) [1]: 6.78 | Activity (HEK293 [2]): inactive | fold change (FC) (HEK293 [3]): 0.98 | IC50 (HeLa S3): 38.1 µM | inhibition (INH) [4]: Dose-dependent effect | inhibition (INH) [5]: Dose-dependent effect | fold change (FC) [6]: 9.07 | fold change (FC) (Homo sapiens [7]): 1.47 | fold change (FC) (Homo sapiens [8]): 1.1 | fold change (FC) (Homo sapiens [9]): 177 | fold change (FC) (HEK293 [10]): 0.98 | fold change (FC) [11]: 10.4 | inhibition (Homo sapiens [12]): Dose-dependent effect | fold change (FC) (Homo sapiens [13]): 1.13 | inhibition (Homo sapiens [14]): Dose-dependent effect | fold change (FC) (HEK293 [15]): 1.39 | fold change (FC) (Homo sapiens [16]): 3.69 | Activity (HEK293 [17]): inactive | inhibition (Homo sapiens [18]): Dose-dependent effect | inhibition (Homo sapiens [19]): Dose-dependent effect | fold change (FC) [20]: 1.18 | fold change (FC) (HEK293 [21]): 0.97 | fold change (FC) [22]: 6.14 | inhibition (INH) [23]: Dose-dependent effect | IC50 (HEK293 [24]): 36.4 µM | fold change (FC) (Homo sapiens [25]): 1.94 | IC50 [26]: 35.5 µM | inhibition (Homo sapiens [27]): Dose-dependent effect | fold change (FC) [28]: 2.58 | fold change (FC) (Homo sapiens [29]): 4.06 | fold change (FC) (HEK293 [30]): 1.95 | IC50 (HEK293 [31]): 33.5 µM | inhibition (Homo sapiens [32]): Dose-dependent effect | fold change (FC) (Homo sapiens [33]): 1.08 | fold change (FC) [34]: 2.65 | fold change (FC) (Homo sapiens [35]): 1.37 | fold change (FC) (Homo sapiens [36]): 2.8 | fold change (FC) (Homo sapiens [37]): 14.7 | fold change (FC) (Homo sapiens [38]): 260 | fold change (FC) (HEK293 [39]): 7.15 | fold change (FC) [40]: 10.03
